From US6335341B1, “Pyridyl-and pyrimidyl-heterocyclic compounds inhibiting oxido squalene-cyclase” (Zeneca Limited, priority 1997, dated 2002)

Row | melting point | Compound
1 | 73 to 74 °C | Cc1cc(N2CCC(CN3CCN(S(=O)(=O)c4ccc(Cl)cc4)CC3)CC2)nc(C)n1 [Example 11, 1-(4-chlorophenylsulphonyl)-4-[1-(2,6-dimethylpyrimidin-4-yl)-4-piperidylmethyl]piperazine]
2 | 114 to 117 °C | Cc1nccc(N2CCC(O)(CN3CCN(C(=O)c4ccc(F)cc4)CC3)CC2)n1 [Example 15, 1-(4-fluorobenzoyl)-4-[1-(2-methylpyrimidin-4-yl]-4-hydroxy-4-piperidylmethyl]piperazine]
3 | 179 to 180 °C | O=S(=O)(c1ccc(Br)cc1)N1CCN(CC2CCN(c3ccncc3)CC2)CC1 [Example 19, 1-(4-bromophenylsulphonyl)-4-[1-(4-pyridyl)piperidin-4-ylmethyl]piperazine]
4 | 158 to 159 °C | O=S(=O)(c1ccc(Br)cc1)N1CCN(CC2CCN(c3ccncc3Cl)CC2)CC1 [Example 20, 1-(4-bromophenylsulphonyl)-4-[1-(3-chloro-4-pyridyl)piperidin-4-ylmethyl]piperazine]

More lines, now with the values behind:

Row | Compound | melting point
5 | Cc1nccc(N2CCN(CC3CCN(S(=O)(=O)c4ccc(Cl)cc4)CC3)CC2)n1 [Example 1, 1-(4-chlorophenylsulphonyl)-4-[1-(2-methylpyrimidin-4-yl)piperazin-4ylmethyl]piperidine] | 191 to 193 °C (dec.)
6 | O=S(=O)(c1ccc(Br)cc1)N1CCC(CN2CCC(c3ccncc3)CC2)CC1 [Example 3, 1-(4-bromophenylsulphonyl)-4-[4-(4-pyridyl)-1-piperidylmethyl]piperidine] | 163 to 164 °C
7 | Cc1nccc(N2CCC(CN3CCN(C(=O)c4ccc(F)cc4)CC3)CC2)n1 [Example 8, 1-(4-fluorobenzoyl)-4-[1-(2-methyl-4-pyrimidinyl)-4-piperidylmethyl]piperazine] | 127 to 128 °C
